# From patent US20120214847A1, “2-[1-PHENYL-5-HYDROXY-4a-SUBSTITUTED-HEXAHYDROCYCLOPENTA[F]INDAZOL-5-YL]ETHYL PHENYL DERIVATIVES AS GLUCOCORTICOID RECEPTOR LIGANDS” (Merck Sharp & Dohme Corp., priority 2009, published 2012)
# Molecular target: T1, human GR (Homo sapiens, UniProt P04150)
# T1 construct: naturally expresses the human GR; endogenous in cells
# T1 sequence (P04150 1-777): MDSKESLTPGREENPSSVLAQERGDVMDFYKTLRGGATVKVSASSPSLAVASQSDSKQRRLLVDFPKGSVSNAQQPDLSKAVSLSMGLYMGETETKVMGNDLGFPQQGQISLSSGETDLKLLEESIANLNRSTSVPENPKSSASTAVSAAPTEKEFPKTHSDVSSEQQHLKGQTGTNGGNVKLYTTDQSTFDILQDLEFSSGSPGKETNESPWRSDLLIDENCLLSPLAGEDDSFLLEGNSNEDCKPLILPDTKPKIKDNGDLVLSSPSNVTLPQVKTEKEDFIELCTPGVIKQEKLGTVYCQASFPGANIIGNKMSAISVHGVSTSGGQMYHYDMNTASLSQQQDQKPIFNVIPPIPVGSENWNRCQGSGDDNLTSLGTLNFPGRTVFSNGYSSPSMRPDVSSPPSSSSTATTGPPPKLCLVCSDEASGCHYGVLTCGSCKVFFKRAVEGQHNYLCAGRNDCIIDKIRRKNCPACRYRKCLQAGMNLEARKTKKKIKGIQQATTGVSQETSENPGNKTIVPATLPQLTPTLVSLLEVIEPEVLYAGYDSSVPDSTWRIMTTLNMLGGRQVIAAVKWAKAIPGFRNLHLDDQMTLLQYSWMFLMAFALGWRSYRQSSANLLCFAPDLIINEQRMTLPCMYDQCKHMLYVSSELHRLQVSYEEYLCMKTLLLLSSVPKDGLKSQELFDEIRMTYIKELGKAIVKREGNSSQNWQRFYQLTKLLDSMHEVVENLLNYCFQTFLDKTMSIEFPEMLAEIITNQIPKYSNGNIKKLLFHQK
# Assay: Trans-activation modulation of glucocorticoid receptor (GRAMMER), MMTV-LUC reporter in A549 cells
# Format: cell-based
# Settings: for Transactivation A549 Cells Grammer Emax (%) / Emax: Emax relative to the activity obtained with 300 nM dexamethasone; for Transactivation A549 Cells Grammer Emax (%) / EC50: A549 cells; for EC50: IP = inflection point, read-out: Transactivation A549 Cells Grammer IP; for Emax: A549, A549 cells, read-out: Transactivation A549 Cells Grammer Emax (%)
Compound,Transactivation A549 Cells Grammer Emax (%),EC50,Emax
"NC(=O)C(O)c1ccccc1CC[C@]1(O)CCC2=Cc3c(cnn3-c3ccc(F)cc3)C[C@@]21C1CC1 (single isomer, unassigned) [Example 3a]",7%,125 nM,–
"OC(C[C@]1(O)CCC2=Cc3c(cnn3-c3ccc(F)cc3)C[C@@]21C1CC1)c1ccc(F)cn1 (single isomer, unassigned) [Example 79b]",8%,46 nM,–
"OCc1ccccc1CC[C@]1(O)CCC2=Cc3c(cnn3-c3ccc(F)cc3)C[C@@]21C1CC1 [Example 2, (4aR,5R)-4a-Cyclopropyl-1-(4-fluorophenyl)-5-{2-[2-(hydroxymethyl)phenyl]ethyl}-1,4,4a,5,6,7-hexahydrocyclopenta[f]indazol-5-ol]",–,22 nM,24%
"CC[C@]12Cc3cnn(-c4ccc(F)cc4)c3C=C1CC[C@@]2(O)CCc1ncccc1S(C)(=O)=O [Example 80, (4aS,5R)-4a-Ethyl-1-(4-fluorophenyl)-5-{2-[3-(methylsulfonyl)pyridin-2-yl]ethyl}-1,4,4a,5,6,7-hexahydrocyclopenta[f]indazol-5-ol]",–,56 nM,38%

# Other lines, results leading:
Transactivation A549 Cells Grammer Emax (%),EC50,Emax,Compound
20%,285 nM,–,"CC[C@]12Cc3cnn(-c4ccccc4)c3C=C1CC[C@@]2(O)CC(O)c1ccccn1 (single isomer, unassigned) [Example 82a]"
10%,174 nM,–,"CC[C@]12Cc3cnn(-c4ccccc4)c3C=C1CC[C@@]2(O)CC(O)c1ccccn1 (single isomer, unassigned) [Example 82b]"
–,96 nM,36%,"CC[C@]12Cc3cnn(-c4ccccc4)c3C=C1CC[C@@]2(O)CCc1ncccc1S(=O)(=O)C(C)C [Example 81, (4aS,5R)-4a-Ethyl-5-{2-[3-(iso-propylsulfonyl)pyridin-2-yl]ethyl}-1-phenyl-1,4,4a,5,6,7-hexahydrocyclopenta[f]indazol-5-ol]"
